Test results from patent publication EP3925949A1, “AZIDO COMPOUNDS AND METHOD FOR MONITORING ACID CERAMIDASE ACTIVITY IN INTACT CELLS USING THEM” (Consejo Superior de Investigaciones Científicas (CSIC), priority 2020, dated 2021).

How the values were obtained:
[1] = target: T1, ACER2 (Homo sapiens, UniProt Q5QJU3); experiment: Hydrolysis of RBM5-177 by microsomes of ACER2 overexpressing cells, UPLC-HRMS; assay type: biochemical; details: microsomes from ACER2 overexpressing cells, RBM5-177 5 µM, 30 min
T1 construct: expressed in transfected cells; host or cells: HeLa T-Rex ACER2-TET-ON, tetracycline-induced; microsomes
Experimental: Cell lysates obtained from HeLa T-Rex ACER1-TET-ON, HeLa T-Rex ACER2-TET-ON and MEF5 overexpressing ACER3 cells were transferred to ultracentrifuge tubes and were spun at 100000 g for 1 h at 4°C. Pellets were resuspended in a 0.25 M saccharose solution and protein concentration was determined as specified below.
Cells were seeded at 5 × 10^5 cells/mL into 6 well plates (1 mL/well) and were allowed to adhere for 24 h. Medium was replaced with fresh medium containing RBM5-177, RBM5-019 or RBM2-37 (5 µM final concentration). After 30 min, medium was removed; cells were washed with 400 µL PBS and harvested with 400 µL Trypsin-EDTA and 600 µL of medium. NC recombinant enzyme, lysates from A375-AC overexpressing cells, MEF5 or microsomes from HeLa T-Rex ACER1-TET-ON and HeLa T-Rex […] activity buffer. Cell pellets were resuspended with 100 µL of H2O and mixed with 750 µL of methanol: chloroform, 2:1. Samples were heated at 48°C overnight and next day, 75 µL of 1 M KOH in methanol were added, followed by 2 h incubation at 37°C. Afterwards, the saponification was neutralised with 75 µL of 1 M acetic acid and solvent was removed using a Speed Vac Savant SPD131 DDA (Thermo Scientific). […]

[2] = target: T2, acid ceramidase (AC) (Homo sapiens, UniProt Q13510); experiment: AC activity in intact cells by UPLC-HRMS quantification of RBM5-019 and reacylated products; assay type: cell-based; set-up: expressed in transfected cells; host or cells: A375/+Dox (overexpressing AC); details: A375/+Dox
T2 sequence (Q13510 143-395 limits assumed): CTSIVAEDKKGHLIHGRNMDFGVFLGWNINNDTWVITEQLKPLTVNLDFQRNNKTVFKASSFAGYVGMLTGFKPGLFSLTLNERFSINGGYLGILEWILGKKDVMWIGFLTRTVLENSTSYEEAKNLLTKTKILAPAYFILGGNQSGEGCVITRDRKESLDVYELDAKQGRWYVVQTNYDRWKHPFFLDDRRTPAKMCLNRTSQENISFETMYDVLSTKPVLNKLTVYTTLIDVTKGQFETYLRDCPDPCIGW
T2 sequence (Q13510 22-142 limits assumed): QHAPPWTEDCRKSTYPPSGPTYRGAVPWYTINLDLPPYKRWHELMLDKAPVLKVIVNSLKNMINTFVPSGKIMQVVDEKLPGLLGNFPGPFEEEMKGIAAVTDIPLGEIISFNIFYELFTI
Experimental: Cells were seeded at 5 × 10^5 cells/mL into 6 well plates (1 mL/well) and were allowed to adhere for 24 h. Medium was replaced with fresh medium containing RBM5-177, RBM5-019 or RBM2-37 (5 μM final concentration). After 30 min, medium was removed; cells were washed with 400 μL PBS and harvested with 400 μL Trypsin-EDTA and 600 μL of medium. NC recombinant enzyme, lysates from A375-AC overexpressing cells, MEF5 or microsomes from HeLa T-Rex ACER1-TET-ON and HeLa T-Rex ACER2-TET-ON cells stably overexpress ACER1 orACER2 respectively were incubated with RBM5-177 or RBM5-019 (10 μM final concentration) for 3 h in the corresponding ceramidase activity buffer. Cell pellets were resuspended with 100 μL of H2O and mixed with 750 μL of methanol: chloroform, 2:1. Samples were heated at 48°C overnight and next day, 75 μL of 1 M KOH in methanol were added, followed by 2 h incubation at 37°C. Afterwards, the saponification was neutralised with 75 μL of 1 M acetic acid and solvent was removed using a […] (Thermo Scientific). Sphingolipid extracts, fortified with internal standards (N-dodecanoylsphingosine, N-dodecanoylglucosylsphingosine, N-dodecanoylsphingosylphosphorylcoline and C17-sphinganine 0.2 nmol each) were solubilised in 150 μL of methanol. Samples were then centrifuged at 9,300 g for 3 min and 130 μL of the supernatant were injected to a Waters Aquity UPLC system connected to a Waters LCT Premier Orthogonal Accelerated Time of Flight Mass Spectrometer (Waters,Milford, MA, USA) operated in positive electrospray ionisation mode. Full scan spectra from 50 to 1500 Da were acquired and individual spectra were summed to produce data points each 0.2 s. Mass accuracy and reproducibility were maintained by using an independent reference spray by the LockSpray interference. The analytical column was a 100 mm x2.1 mm i.d., 1.7 μm C8 Acquity UPLC BEH (Waters). The two mobile phases were phase A: methanol/water/formic acid (74/25/1 v/v/v); phase B: methanol/formic acid (99/1 v/v), both also contained 5 mM ammonium formate. […]

CCCCCCCC(=O)N[C@@H](C)[C@H](O)CCCCCCCCCCCCN=[N+]=[N-] [RBM5-177, N-((2S,3R)-15-azido-3-hydroxypentadecan-2-yl)octanamide]
RBM5-19 formation (hydrolysis as substrate) [1]: transformed into the free amine only by AC

CCCCCCCCCCCCC/C=C/[C@@H](O)[C@H](CO)NC(=O)CCl [SOCLAC]
effect on formation of RBM5-19 and transacylated products ([2]; SOCLAC 5 µM 1 h, RBM5-177 5 µM 4 h (Fig. 4B)): precluded the formation of both RBM5-19 and transacylated products
effect on levels of RBM5-19 and reacylated products ([2]; SOCLAC 5 µM 1 h pre treatment, RBM5-177 5 µM 4 h (Fig. 6B)): dropped dramatically
